From patent US9376424B2, “Methods for treating post traumatic stress disorder” (AZEVAN PHARMACEUTICALS, INC., priority 2010, dated 2016)
“Also recorded” adds a separate entry of the source.

What was measured:
human V1a receptor = target: T1, human V1a receptor (Homo sapiens, UniProt P37288); test: Inhibition of phosphatidylinositol turnover (V1a); assay type: cell-based; conditions: V1a
T1 construct: host or cells: CHO cells
Text: Inhibition of phosphatidylinositol turnover (V1a). The physiological effects of vasopressin are mediated through specific G-protein coupled receptors. The vasopressin V1a receptor is coupled to the Gq/G11 family of G proteins and mediates phosphatidylinositol turnover. The agonist or antagonist character of the compounds of the invention may be determined by their ability to inhibit vasopressin-mediated turnover of phosphatidylinositol by the procedure described in the following paragraphs.
Cell culture and labeling of cells. Three days prior to the assay, near-confluent cultures of hV1a or hV1b cells were dissociated and seeded in 6-well tissue culture plates, about 100 wells being seeded from each 75 cm^2 flask (equivalent to 12:1 split ratio). Each well contained 1 mL of growth medium with 2 μCi of [^3H]myo-inositol (American Radiolabeled Chemicals, St. Louis, Mo., USA).
Incubations (V1a and V1b). All assays were in triplicate except for basal and 10 nM AVP (both n=6). AVP ((arginine vasopressin), Peninsula Labs, Belmont, Calif., USA (#8103)) was dissolved in 0.1N acetic acid. Test agents were dissolved in DMSO and diluted in DMSO to 200 times the final test concentration. […] The order of incubations was randomized. Incubations were initiated by removing the prelabeling medium, washing the monolayer once with 1 mL of 0.9% NaCl, and transferring the contents of the assay tubes to corresponding wells. The plates were incubated for 1 hour at 37° C. Incubations were terminated by removing the incubation medium and adding 500 μL of ice cold 5% (w/v) trichloroacetic acid and allowing the wells to stand for 15 min.
Measurement of [^3H]inositol phosphates (V1a and V1b). BioRad Poly-Prep Econo-Columns were packed with 0.3 mL of AG 1×−8 100-200 formate form resin. Resin was mixed 1:1 with water and 0.6 mL added to each column. Columns were then washed with 10 mL water. Scintillation vials (20 mL) were placed under each column. For each well, the contents were transferred to a minicolumn, after which the well was washed with 0.5 mL distilled water, which was also added to the minicolumn. The columns were then washed twice with 5 mL of 5 mM myo-inositol to elute free inositol. Aliquots (1 mL) were transferred to 20 mL scintillation vials and 10 mL of Beckman Ready Protein Plus added. After the myo-inositol wash was complete, empty scintillation vials were placed under the columns, and [^3H]inositol phosphates were eluted with three additions of 1 mL 0.5 M ammonium formate containing 0.1 N formic acid. Elution conditions were optimized to recover inositol mono-, bis-, and trisphosphates, without eluting the more metabolically inert tetrakis-, pentakis-, and hexakis-phosphates. To each sample was added 10 mL of a high salt capacity scintillation fluid such as Tru-Count High Salt Capacity or Packard Hionic-Fluor. Inositol lipids were measured by adding 1 mL of 2% sodium dodecyl sulfate (SDS) to each well, allowing the wells to stand for at least 30 min., and transferring the solution to 20 mL scintillation vials, to which 10 mL Beckman Ready Protein Plus scintillation fluid was then added. Samples were counted in a Beckman LS 3801 liquid scintillation counter for 10 min. Total inositol incorporation for each well was calculated as the sum of free inositol, inositol phosphates, and inositol lipids.
Data analysis (V1a and V1b): concentration-inhibition experiments. Concentration-response curves for AVP and concentration-inhibition curves for test agents versus 10 nM AVP were analyzed by nonlinear least-squares curve-fitting to a 4-parameter logistic function. Parameters for basal and maximal inositol phosphates, EC50 or IC50, and Hill coefficient were varied to achieve the best fit. The curve-fitting was weighted under the assumption that the standard deviation was proportional to dpm of radioactivity. Full concentration-response curves for AVP were run in each experiment. […]

male Long Evans rats = test: Predatory fear conditioning model of PTSD (ferret/sucrose, fMRI of awake rats); assay type: in vivo, rat
Text: The use of the compounds and compositions described herein for treating PTSD and stress-related affective illness is established using a model of predatory fear conditioning. The model uses fMRI data of rats exposed to a ferret, a natural predator, as the unconditioned stimulus while experiencing the taste of sucrose, which is highly rewarding, as the conditioned stimulus. The taste of sucrose becomes associated with the traumatic memory of the ferret. […] This hyperarousal pattern of brain activity in response to a stimulus associated with a traumatic memory is characteristic of PTSD. […] Thus, the memory of fear is worse than fear itself. Treatment with compounds and compositions described herein block the hyperarousal seen with the sucrose-associated traumatic memory in untreated animals. The compounds described herein are efficacious in a this new preclinical model of PTSD in rats that utilized predatory fear as the unconditioned stimulus and the taste of sucrose as the conditioned stimulus. […] Compounds described herein are also efficacious in established models of depression (social interaction test), anxiety (Elevated Plus Maze, Light:Dark Shuttle Box), and aggression (resident:intruder test). The predatory fear conditioning juxtaposes an aversive unconditioned stimulus (threat of predation), with the taste of sucrose as the conditioned stimulus. During an imaging session, awake rats are exposed to a live, sable ferret placed into the bore of the magnet. This presentation of the predator is done with and without the application of sucrose to the tongue of the rat. Retrieval of the memory weeks later by the application of sucrose alone (as a Conditioned Stimulus) in the absence of the ferret elicits a robust increase in brain activity that far exceeds the initial presentation of the predator. […]

C57B1/6J males = test: Social Interaction Test after chronic social subjugation; assay type: in vivo, mouse; conditions: mice, 28-day treatment regimen
Text: Mouse Chronic Subordination Model of Depression. Social stress is a factor in the etiology of several psychopathologies, with individuals differing in vulnerability. Adult male mice are subjected to a model of chronic psychosocial stress in which resident/intruder dyads live chronically in sensory contact and physically interact on a daily basis.
Anti-depressant Effect in the Social Interaction Test. […] A rapid subjugation paradigm in mice lead to diminished social interaction behavior, where the dependent measures are distance traveled and time in the Interaction Zone. […] These observations are consistent with the subordination/social interaction model as a rapid behavioral screen for potential antidepressants. Additional details are described in Berton et al. (2006).
Briefly, C57B1/6J males were defeated daily for 10 days by resident, highly aggressive CF-1 males. After 5 minutes of direct exposure, a perforated plastic partition was inserted into the cage that allowed olfactory and visual contact without physical defeat for the remaining 23 hr 55 min each day. The C57 males were exposed to a different resident male in a different cage each day to increase the stress of the procedure (it was observed that all CF-1 males attacked the intruder each day). At the end of the 10 day defeat procedure, the C57 males were tested in an open field apparatus during the dark phase. A dominant male was caged in an area of the open field apparatus termed the “social interaction zone.” Time and distance traveled in the zone were recorded. The C57 males were then divided randomly among the following treatments: AVN246-HCl (2 mg/kg), saline vehicle (0.45%), or chlordiazepoxide (10 mg/kg). Treatments were given daily (i.p.) for 28 days and the animals were retested. Behavioral changes were determined by calculating difference scores (Post-Pretest) and these scores were analyzed.

resident male rats = test: Resident-Intruder Model of Stress and Aggression in Rats (neuroimaging); assay type: in vivo, rat; conditions: awake resident male rats, 5 mg/kg
Text: Resident-Intruder Model of Stress and Aggression in Rats. Neuroimaging is used to assess the blockade of stress/arousal with test compound compared to control. The effect of AVN251-HCl on functional circuitry was examined using the imaging method for awake rats. Additional details of the assay are described in Ferris et al. (2008).
Male rats in the company of a female cage mate will piloerect in the presence of a male intruder. This piloerection is a sign of stress and aggressive intent and is associated with activation of stress/arousal circuits in the brain. […] Resident male rats from six male:female pairs were imaged while fully awake. During a single imaging session, these males were treated with vehicle or AVN251-HCl (5 mg/kg).
The total volume of brain activation for resident males confronted with their mate alone, mate plus intruder, and mate plus intruder in the presence of AVN251-HCl can be viewed as 3D models. While there appears to be a general decrease in BOLD signal in major regions with AVN251-HCl treatment, sexual motivation, as assessed by the presentation of a novel receptive female, was unaffected by V1a receptor blockade.
Stress circuit activation in response to an intruder male is assessed by obtaining brain scans viewed from a caudal/dorsal perspective as translucent shells. The localization of activated voxels is mapped as 3D volumes of activation, which are composed of 10 subjects each. Once fully registered and segmented, the statistical responses for each subject are averaged on a voxel-by-voxel basis. Those averaged voxels exceeding a 2.0% threshold are shown in their appropriate spatial location. Functional images are acquired on awake rats at 4.7 T.
The 3D volumes of activation are composed from results obtained with 10 subjects in each condition. […] Particular olfactory systems measured included the anterior olfactory nucleus, olfactory tubercle, piriform cortex, n. laterial olfactory tract, and entrorhinal cortex. Particular dopaminergic systems measured included the prelimbic cortex, accumbens, ventral pallidum, medial dorsal thalamus, and ventral tegmentum.
Awake rats were imaged when presented with their mate+an intruder, a highly stressful stimulus.

T1 sequence (P37288 whole entry): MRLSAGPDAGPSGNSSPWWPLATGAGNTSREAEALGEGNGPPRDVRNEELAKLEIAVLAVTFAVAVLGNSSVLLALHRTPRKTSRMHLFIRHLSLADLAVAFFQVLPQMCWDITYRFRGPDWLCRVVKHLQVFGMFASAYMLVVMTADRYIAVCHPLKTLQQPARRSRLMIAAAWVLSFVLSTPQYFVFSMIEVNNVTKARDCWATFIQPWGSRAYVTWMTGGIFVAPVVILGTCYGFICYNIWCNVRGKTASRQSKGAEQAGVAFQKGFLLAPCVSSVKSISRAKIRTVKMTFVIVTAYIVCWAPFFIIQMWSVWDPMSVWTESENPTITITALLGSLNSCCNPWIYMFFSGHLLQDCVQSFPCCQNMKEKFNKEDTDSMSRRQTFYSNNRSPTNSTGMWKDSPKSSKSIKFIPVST

Q: Which “agonist or antagonist character (inhibition of vasopressin-mediated phosphatidylinositol turnover)” value (human V1a receptor) does the source give for O=C(NCc1cccc(C(F)(F)F)c1)[C@H](CCC(=O)N1CCN(CCc2ccccc2)CC1)N1C(=O)[C@@H](N2C(=O)OC[C@@H]2c2ccccc2)[C@H]1C=Cc1ccccc1 (single isomer, unassigned) [Example 35] here?
A: Its value is “vasopressin V1a antagonists”.

Q: With O=C(NCc1cccc(C(F)(F)F)c1)C(CCC(=O)N1CCN(C2CCCCC2)CC1)N1C(=O)C(N2C(=O)OCC2c2ccccc2)C1C=Cc1ccccc1 (single isomer, unassigned) [Example 110] as the compound, how does the “agonist or antagonist character (inhibition of vasopressin-mediated phosphatidylinositol turnover)” value (human V1a receptor) read?
A: The value was “vasopressin V1a antagonists”.

Q: Which “agonist or antagonist character (inhibition of vasopressin-mediated phosphatidylinositol turnover)” value (human V1a receptor) does the source give for O=C(NCc1cccc(C(F)(F)F)c1)C(CC(=O)N1CCC(N2CCCCC2)CC1)N1C(=O)C(N2C(=O)OCC2c2ccccc2)C1C=Cc1ccccc1 (stereo not shown) [Example 44] here?
A: Its value is “vasopressin V1a antagonists”.

Q: How did the “agonist or antagonist character (inhibition of vasopressin-mediated phosphatidylinositol turnover)” value (human V1a receptor) turn out when O=C(NCc1cccc(C(F)(F)F)c1)C(CCC(=O)N1CCC(N2CCCCC2)CC1)N1C(=O)C(N2C(=O)OCC2c2ccccc2)C1C=Cc1ccccc1 (stereo not shown) [Example 88] was run?
A: The value was “vasopressin V1a antagonists”.

Q: Which “retrieval of predatory fear memory” value (male Long Evans rats) does the source give for C[C@@H](NC(=O)[C@@H](CC(=O)N1CCC(N2CCCCC2)CC1)N1C(=O)[C@@H](N2C(=O)OC[C@@H]2c2ccccc2)[C@H]1/C=C/c1cccc(I)c1)c1ccccc1 [Example 266] here?
A: Its value is “effective in blocking retrieval of predatory fear memory”.

Q: What about the “predatory fear response in the unconditioned test animal (activation for ferret alone)” value (male Long Evans rats; pretreatment 5 mg/kg body weight) of the same compound?
A: Its value is “retained”.

Q: What about the “hyperarousal brain activation pattern (BOLD) on re-exposure to sucrose alone” value (male Long Evans rats; pretreatment 5 mg/kg body weight, two weeks after conditioning, listed as AVN576) of the same compound?
A: The value was “blocked the hyperarousal brain activation pattern; also recorded: significantly reduces brain activation”.

Q: What does the source list for CNCCC(Oc1ccc(C(F)(F)F)cc1)c1ccccc1 (stereo not shown) [fluoxetine]?
A: effect on deficits in social interaction produced by chronic subordination (C57B1/6J males): reversed deficits produced by chronic subordination; effect on deficits in social interaction produced by chronic subordination (C57B1/6J males; listed as Fluoxetine): produced comparable improvements; sexual motivation (reward circuit activation by novel receptive female) (resident male rats): markedly diminished activation of this circuit
